Values quoted from earlier work in patent US11007501B2, “Reduced permeability microcapsules” (Trucapsol LLC, priority 2018, dated 2021).

| Substance | Octanol/water Partition Coefficient (logP) |
| --- | --- |
| Nonalactone | 1.3 |
| Violiff | 2.11 |
